The text below walks through data of ChEMBL document CHEMBL4725252, “Development of an efficient semisynthetic modification of FR901459 via a novel regioselective N, O-acyl migration” (Bioorg Med Chem Lett, 2020).

Converted amounts (≈) assume the structure as drawn. Square brackets hold non-standard residues; d marks the D form. Peptide text beside a SMILES is read from it. MeBmt = C/C=C/C[C@@H](C)[C@@H](O)[C@H](NC)C(=O)O; NMeL = CN[C@@H](CC(C)C)C(=O)O; NMeV = CN[C@H](C(=O)O)C(C)C; Sar = CNCC(=O)O

In assay [1] the test system is Hepatitis C virus. Briefly: Antiviral activity against HCV subgenomic replicon assessed as inhibition of replication by qRT-PCR analysis. Format: functional, organism-based, Hepacivirus hominis.
Assay [2] deals with Hepatitis C virus. In words: Ratio of EC50 for FR901459 to EC50 for test compound for antiviral activity against HCV subgenomic replicon assessed as inhibition of replication by qRT-PCR analysis. It is filed as functional, Hepacivirus hominis.

Regarding `C/C=C/C[C@@H](C)[C@@H](O)[C@H]1C(=O)N[C@@H]([C@@H](C)O)C(=O)N(C)[C@H](C)C(=O)N(C)[C@@H](CC(C)C)C(=O)N[C@@H](CC(C)C)C(=O)N(C)[C@@H](CC(C)C)C(=O)N[C@@H](C)C(=O)N[C@H](C)C(=O)N(C)[C@@H](CC(C)C)C(=O)N[C@@H](CC(C)C)C(=O)N(C)[C@@H](C(C)C)C(=O)N1C`, the EC50 in the assay with Hepatitis C virus [1] came out at 0.038 µg/mL (≈ 0.0308 µM). In addition, the “Ratio EC50” value in the assay with Hepatitis C virus [2] stood at 2.5. As for `C/C=C/C[C@@H](C)[C@@H](O)[C@H]1C(=O)N[C@@H]([C@@H](C)O)C(=O)N(C)CC(=O)N(C)[C@@H](CC(C)C)C(=O)N[C@@H](CC(C)C)C(=O)N(C)[C@@H](CC(C)C)C(=O)N[C@@H](C)C(=O)N[C@H](C)C(=O)N(C)[C@@H](CC(C)C)C(=O)N[C@@H](CC(C)C)C(=O)N(C)[C@@H](C(C)C)C(=O)N1C` (cyclo(A[dA][NMeL]L[NMeV][MeBmt]T[Sar][NMeL]L[NMeL])), the 50% effective concentration (EC50) with Hepatitis C virus [1] came out at 0.096 µg/mL (≈ 0.0788 µM).
